This data set can be described thus: TIMS collisional cross section (CCS, N2) of the lipid ion; higher = larger ion cross section. The following applies: ionization mode: positive, one isomer drawn.

± gives the standard deviation of the averaged measurements.

For the compound `CCCCCCCCCCCCCCCCC(=O)OC[C@@H](COC(=O)CCCCCCCCCCCCC)OC(=O)CCCCCCCCCCCCC` [TG 14:0_14:0_17:0] (ion (formula + adduct): [C48H92O6+NH4] 1+), the “TIMS collisional cross section” value (sample type: HeLa) came out at 304.6 Å².

Consider `CCCCCCCC/C=C\CCCCCCCC(=O)OC[C@@H](COC(=O)CCCCCCCCCCCCC)OC(=O)CCCCCCCCCCCCC` [TG 14:0_14:0_18:1] (ion (formula + adduct): [C49H92O6+NH4] 1+), for which, where the note is “sample type: Liver”, the “TIMS collisional cross section” value was 305.9 Å².

`CCCC/C=C\CCCCCCCC(=O)O[C@H](COC(=O)CCCCCCCCCCCCC)COC(=O)CCCCCCCCCCCCCCC` [TG 14:0_14:1_16:0] (ion (formula + adduct): [C47H88O6+NH4] 1+): where the note is “sample type: Liver”, the “TIMS collisional cross section” value is 299.8 Å².

For the compound `CCCC/C=C\CCCCCCCC(=O)O[C@@H](COC(=O)CCCCCCC/C=C\CCCCCC)COC(=O)CCCCCCCCCCCCC` [TG 14:0_14:1_16:1] (ion (formula + adduct): [C47H86O6+NH4] 1+), the “TIMS collisional cross section” value (sample type: HeLa) stood at 297.4 Å².

For the compound `CCCCCCCCCCCCCCC(=O)OC[C@@H](COC(=O)CCCCCCCCCCCCC)OC(=O)CCCCCCCCCCCCCC` [TG 14:0_15:0_15:0] (ion (formula + adduct): [C47H90O6+NH4] 1+), the “TIMS collisional cross section” value (sample type: Liver) is reported as 302 Å².

For `CCCCCCCCCCCCCCCC(=O)OC[C@@H](COC(=O)CCCCCCCCCCCCC)OC(=O)CCCCCCCCCCCCCC` [TG 14:0_15:0_16:0] (ion (formula + adduct): [C48H92O6+NH4] 1+), the “TIMS collisional cross section” value reads like this: (sample type: Liver) 304.9 Å²; (sample type: plasma) 304.83 ± 0.05 Å².

For `CCCCCC/C=C\CCCCCCCC(=O)OC[C@@H](COC(=O)CCCCCCCCCCCCC)OC(=O)CCCCCCCCCCCCCC` [TG 14:0_15:0_16:1] (ion (formula + adduct): [C48H90O6+NH4] 1+), the “TIMS collisional cross section” value by setting is: (sample type: HeLa) 302.8 Å²; (sample type: plasma) 302.85 ± 0.49 Å².

Turning to `CCCCC/C=C\CCCCCCCC(=O)O[C@H](COC(=O)CCCCCCCCCCCCC)COC(=O)CCCCCCCCCCCCCCC` [TG 14:0_15:1_16:0] (ion (formula + adduct): [C48H90O6+NH4] 1+), the “TIMS collisional cross section” value (sample type: Liver) is given as 303.1 Å².

For `CCCCCCCCCCCCCCCC(=O)OC[C@@H](COC(=O)CCCCCCCCCCCCC)OC(=O)CCCCCCCCCCCCCCC` [TG 14:0_16:0_16:0] (ion (formula + adduct): [C49H94O6+NH4] 1+), the “TIMS collisional cross section” value (sample type: HeLa) is 308.5 Å², the “TIMS collisional cross section” value (sample type: Liver) turned out to be 308.4 Å² and the “TIMS collisional cross section” value (sample type: plasma) was found to be 308.1 ± 0.22 Å².

`CCCCCC/C=C\CCCCCCCC(=O)OC[C@@H](COC(=O)CCCCCCCCCCCCC)OC(=O)CCCCCCCCCCCCCCC` [TG 14:0_16:0_16:1] (ion (formula + adduct): [C49H92O6+NH4] 1+): the “TIMS collisional cross section” value (sample type: HeLa) amounted to 306.03 ± 0.35 Å², the “TIMS collisional cross section” value (sample type: Liver) is given as 306.1 Å² and the “TIMS collisional cross section” value (sample type: plasma) is recorded as 306 ± 0.3 Å².

On to `CCCCCCCCCCCCCCCCC(=O)OC[C@@H](COC(=O)CCCCCCCCCCCCC)OC(=O)CCCCCCCCCCCCCCC` [TG 14:0_16:0_17:0] (ion (formula + adduct): [C50H96O6+NH4] 1+), for which the “TIMS collisional cross section” value (sample type: Liver) amounted to 311.5 Å².

On to `CCCCCCC/C=C\CCCCCCCC(=O)OC[C@@H](COC(=O)CCCCCCCCCCCCC)OC(=O)CCCCCCCCCCCCCCC` [TG 14:0_16:0_17:1] (ion (formula + adduct): [C50H94O6+NH4] 1+), for which the “TIMS collisional cross section” value is, setting by setting: (sample type: HeLa) 309.1 Å²; (sample type: Liver) 309 Å².

On to `CCCCCCCCCCCCCCCCCC(=O)OC[C@@H](COC(=O)CCCCCCCCCCCCC)OC(=O)CCCCCCCCCCCCCCC` [TG 14:0_16:0_18:0] (ion (formula + adduct): [C51H98O6+NH4] 1+), for which the “TIMS collisional cross section” value (sample type: Liver) is 314.3 Å².

Consider `CCCCCCCC/C=C\CCCCCCCC(=O)OC[C@@H](COC(=O)CCCCCCCCCCCCC)OC(=O)CCCCCCCCCCCCCCC` [TG 14:0_16:0_18:1] (ion (formula + adduct): [C51H96O6+NH4] 1+), for which the “TIMS collisional cross section” value came to 311.9 ± 0.14 Å² (sample type: HeLa), 312.4 Å² (sample type: Liver) and 312.07 ± 0.22 Å² (sample type: plasma).

As to `CCCCC/C=C\C/C=C\CCCCCCCC(=O)OC[C@@H](COC(=O)CCCCCCCCCCCCC)OC(=O)CCCCCCCCCCCCCCC` [TG 14:0_16:0_18:2] (ion (formula + adduct): [C51H94O6+NH4] 1+), the “TIMS collisional cross section” value (sample type: Liver) came out at 308.9 Å².

Take `CCCCCCCCCCCCCCCCCCCC(=O)OC[C@@H](COC(=O)CCCCCCCCCCCCC)OC(=O)CCCCCCCCCCCCCCC` [TG 14:0_16:0_20:0] (ion (formula + adduct): [C53H102O6+NH4] 1+): the “TIMS collisional cross section” value (sample type: HeLa) was found to be 320.6 Å².

Turning to `CCCCC/C=C\C/C=C\C/C=C\C/C=C\CCCC(=O)OC[C@@H](COC(=O)CCCCCCCCCCCCC)OC(=O)CCCCCCCCCCCCCCC` [TG 14:0_16:0_20:4] (ion (formula + adduct): [C53H94O6+NH4] 1+), for the setting “sample type: plasma”, the “TIMS collisional cross section” value is 314.2 Å².

On to `CC/C=C\C/C=C\C/C=C\C/C=C\C/C=C\CCCCCC(=O)OC[C@@H](COC(=O)CCCCCCCCCCCCC)OC(=O)CCCCCCCCCCCCCCC` [TG 14:0_16:0_22:5] (ion (formula + adduct): [C55H96O6+NH4] 1+), for which, where the note is “sample type: HeLa”, the “TIMS collisional cross section” value turned out to be 318 Å².

As to `CC/C=C\C/C=C\C/C=C\C/C=C\C/C=C\C/C=C\CCC(=O)OC[C@@H](COC(=O)CCCCCCCCCCCCC)OC(=O)CCCCCCCCCCCCCCC` [TG 14:0_16:0_22:6] (ion (formula + adduct): [C55H94O6+NH4] 1+), under “sample type: HeLa”, the “TIMS collisional cross section” value was determined as 317.6 Å².

For `CCCCCC/C=C\CCCCCCCC(=O)OC[C@@H](COC(=O)CCCCCCCCCCCCC)OC(=O)CCCCCCC/C=C\CCCCCC` [TG 14:0_16:1_16:1] (ion (formula + adduct): [C49H90O6+NH4] 1+), the “TIMS collisional cross section” value is, setting by setting: (sample type: HeLa) 302.9 ± 0.28 Å²; (sample type: plasma) 303.5 Å².

`CCCCCC/C=C\CCCCCCCC(=O)O[C@H](COC(=O)CCCCCCCCCCCCC)COC(=O)CCCCCCCCCCCCCCCC` [TG 14:0_16:1_17:0] (ion (formula + adduct): [C50H94O6+NH4] 1+): the “TIMS collisional cross section” value by setting is: (sample type: HeLa) 309.6 Å²; (sample type: plasma) 309 Å².

As for `CCCCCC/C=C\CCCCCCCC(=O)O[C@@H](COC(=O)CCCCCCC/C=C\CCCCCCC)COC(=O)CCCCCCCCCCCCC` [TG 14:0_16:1_17:1] (ion (formula + adduct): [C50H92O6+NH4] 1+), the “TIMS collisional cross section” value by setting is: (sample type: HeLa) 307.1 Å²; (sample type: plasma) 307.3 Å².

For the compound `CCCCCC/C=C\CCCCCCCC(=O)O[C@@H](COC(=O)CCCCCCC/C=C\CCCCCCCC)COC(=O)CCCCCCCCCCCCC` [TG 14:0_16:1_18:1] (ion (formula + adduct): [C51H94O6+NH4] 1+), the “TIMS collisional cross section” value (sample type: HeLa) is recorded as 309.3 Å², the “TIMS collisional cross section” value (sample type: Liver) turned out to be 310.3 Å² and the “TIMS collisional cross section” value (sample type: plasma) was determined as 309.45 ± 0.071 Å².

With `CCCCC/C=C\C/C=C\CCCCCCCC(=O)OC[C@@H](COC(=O)CCCCCCCCCCCCC)OC(=O)CCCCCCC/C=C\CCCCCC` [TG 14:0_16:1_18:2] (ion (formula + adduct): [C51H92O6+NH4] 1+), the “TIMS collisional cross section” value was found to be 306.1 Å² (sample type: Liver) and 307.8 ± 0.92 Å² (sample type: plasma).

Turning to `CCCCC/C=C\C/C=C\C/C=C\C/C=C\CCCC(=O)OC[C@@H](COC(=O)CCCCCCCCCCCCC)OC(=O)CCCCCCC/C=C\CCCCCC` [TG 14:0_16:1_20:4] (ion (formula + adduct): [C53H92O6+NH4] 1+), where the note is “sample type: HeLa”, the “TIMS collisional cross section” value is recorded as 311 Å².

Take `CC/C=C\C/C=C\C/C=C\C/C=C\C/C=C\CCCC(=O)OC[C@@H](COC(=O)CCCCCCCCCCCCC)OC(=O)CCCCCCC/C=C\CCCCCC` [TG 14:0_16:1_20:5] (ion (formula + adduct): [C53H90O6+NH4] 1+): under “sample type: HeLa”, the “TIMS collisional cross section” value stood at 310.6 Å².

Consider `CC/C=C\C/C=C\C/C=C\C/C=C\C/C=C\C/C=C\CCC(=O)OC[C@@H](COC(=O)CCCCCCCCCCCCC)OC(=O)CCCCCCC/C=C\CCCCCC` [TG 14:0_16:1_22:6] (ion (formula + adduct): [C55H92O6+NH4] 1+), for which the “TIMS collisional cross section” value (sample type: HeLa) came out at 315 Å².

Consider `CCCCCCCC/C=C\CCCCCCCC(=O)OC[C@@H](COC(=O)CCCCCCCCCCCCC)OC(=O)CCCCCCCCCCCCCCCC` [TG 14:0_17:0_18:1] (ion (formula + adduct): [C52H98O6+NH4] 1+), for which, where the note is “sample type: Liver”, the “TIMS collisional cross section” value is reported as 315.3 Å².

Turning to `CCCCCCC/C=C\CCCCCCCC(=O)O[C@@H](COC(=O)CCCCCCC/C=C\CCCCCCCC)COC(=O)CCCCCCCCCCCCC` [TG 14:0_17:1_18:1] (ion (formula + adduct): [C52H96O6+NH4] 1+), the “TIMS collisional cross section” value is recorded as 312.9 Å² (sample type: HeLa) and 313.6 Å² (sample type: Liver).

With `CCCCCCCCCCCCCCCCCCCC(=O)OC[C@@H](COC(=O)CCCCCCCCCCCCC)OC(=O)CCCCCCCCCCCCCCCCC` [TG 14:0_18:0_20:0] (ion (formula + adduct): [C55H106O6+NH4] 1+), the “TIMS collisional cross section” value (sample type: HeLa) is 326.4 Å² and the “TIMS collisional cross section” value (sample type: plasma) was 326.1 Å².

As for `CCCCCCCC/C=C\CCCCCCCC(=O)OC[C@@H](COC(=O)CCCCCCCCCCCCC)OC(=O)CCCCCCC/C=C\CCCCCCCC` [TG 14:0_18:1_18:1] (ion (formula + adduct): [C53H98O6+NH4] 1+), the “TIMS collisional cross section” value (sample type: Liver) stood at 315.3 Å².

Turning to `CCCCC/C=C\C/C=C\CCCCCCCC(=O)OC[C@@H](COC(=O)CCCCCCCCCCCCC)OC(=O)CCCCCCC/C=C\CCCCCCCC` [TG 14:0_18:1_18:2] (ion (formula + adduct): [C53H96O6+NH4] 1+), the “TIMS collisional cross section” value (sample type: Liver) turned out to be 312.9 Å².

As for `CCCCCCCC/C=C\CCCCCCCCCC(=O)OC[C@@H](COC(=O)CCCCCCCCCCCCC)OC(=O)CCCCCCC/C=C\CCCCCCCC` [TG 14:0_18:1_20:1] (ion (formula + adduct): [C55H102O6+NH4] 1+), the “TIMS collisional cross section” value by setting is: (sample type: HeLa) 322.3 Å²; (sample type: Liver) 322.4 Å².

(Values after the supplement of paper PMC6965134.)
